Read-outs that look alike come from different tables or passages of the source.
How the values were obtained:
[1] = 347 K
Description: Contact Angle Experiments. […] The procedure largely follows that of Example 1, but as explained below, a change to the previous procedure was necessary because it was not possible to continuously monitor oil droplets on the calcite surface with the surfactant solution.
Before the contact angle measurement, the chemical solution and RB were separately degasified at elevated temperatures. Then, oil-aged calcite pieces were placed in RB. Oil droplets were placed on the bottom surface of a calcite piece in the RB glass chamber.
The calcite piece was continued to be placed in the surfactant solution and taken out after 1 day. Then, the calcite piece was rinsed with RB and placed in RB with no surfactant. […] A photo of the oil droplet was taken then. The contact angles of both sides of each oil droplet were measured using onscreen protractor software. An average contact angle and standard deviation were then calculated.

[2] = Coreflooding of fractured cores, vertical (Example 2)
Protocol: Experimental Procedure for Coreflooding. […] The Indiana limestone cores have the common dimensions with a diameter of 0.0254 m and a length of 0.127 m. The cores were saturated with RB first and then oil, during which the core properties were measured, such as porosity, permeability, and water and oil saturations.
It includes an accumulator for crude oil, a pump, a Hassler-type core holder, a hydraulic manual pump to maintain the overburden pressure, a differential pressure gauge, cylinders, and an oven. After a core was placed in the core holder, oil was injected into the cores at 100 cm^3/h and 347 K until no water production was observed.
An artificial fracture was created along the longitudinal axis using an electric saw for each core (FIG. 20). By following the procedure of Mejia, Teflon spacers with 0.001 m in width and 0.127 m in length were placed along two edges of the fracture to maintain a fracture aperture. Then, the core halves were carefully put together with the Teflon spacers in the fracture, wrapped with a Teflon tube, and placed inside a vertically oriented coreholder.
FIG. 21 provides a schematic of the experimental setup for coreflooding. It consists of accumulators for crude oil, RB, and chemical solution (3-pentanone or surfactant), a pump, a Hassler-type core holder, a hydraulic manual pump to maintain the overburden pressure, a differential pressure gauge, cylinders, and an oven. […] After a fractured core was placed in the coreholder, the oven temperature was increased to reservoir temperature (347 K). Then, the core was flooded with crude oil to remove any gas inside the fracture and measure the fracture permeability using the flow rate of 900 cm^3/h. The overburden pressure was adjusted so that all cores used in this research had similar fracture apertures and fracture permeabilities.
Fracture permeabilities were calculated. The equation for flow between parallel plates b=(3πdke)^1/3 was used to estimate a fracture aperture, where b is the fracture aperture, d is the core diameter, and ke is the effective oil permeability of the fractured core. […] Af and Am are cross-sectional areas of the fracture and matrix, respectively. kf and km are permeabilities of the fracture and matrix, respectively.
The initial RB stage was at 6 cm^3/h for 1.5 pore volumes injected (PVI), then at 0.05 cm^3/h for 0.3-0.4 PVI, and at 6 cm^3/h until there was no oil production. After that, a chemical slug (3-pentanone or surfactant) was injected at 0.6 cm^3/h for 1.6 PVI. Finally, the chase RB was injected at 0.6 cm^3/h. […] However, it was terminated after 1.2 PVI of the chase RB for core 1 because of operational constraints.
The coreflood effluent was collected in plastic graduating cylinders at room temperature. To correct the oil recovery factor for 3-pentanone solubility in oil, the 3-pentanone concentration in recovered oil was measured by the proton nuclear magnetic resonance (H NMR) method for the chemical slug and chase RB flooding periods for core 1.

[3] = Description: Experimental Procedure for Flooding/Soaking Experiments. […] This section describes the preparation of the tight cores and the flooding/soaking experiments. Properties of the tight carbonate cores and the injection scheme for two flooding/soaking experiments are also summarized in this section.
Rocherons carbonate cores (Kocurek Industries Inc.) were used in this research. […] In this research, 11 core pieces were saturated only by crude oil and 5 core pieces were saturated by both crude oil and reservoir brine at room temperature. To saturate core pieces by crude oil, they were placed in an accumulator, which was evacuated for at least 24 hours. […] The weights of the core pieces were measured before and after saturating by crude oil to quantify the oil volume in the cores. The volume so determined was assumed to be the accessible pore volume (PV) of the core. […] It consists of an accumulator for reservoir brine, a pump, a Hassler-type core-holder, a hydraulic manual pump to maintain the overburden pressure and cylinders. Before brine injection, the inlet tubing of the coreholder was evacuated for 10 seconds to prevent injecting air into the core. The core was flooded by brine until the injected brine volume exceeded the accessible pore volume. […] The weights of the core pieces were measured after they were re-saturated by the crude oil. The brine and oil volumes in the core pieces were calculated by the following equations. […] Then, oil and brine saturations in each core piece can be calculated. Table 19 presents the properties of the core pieces, including the length of each core piece, accessible pore volume, and oil and brine saturations. Core pieces #1-#5 in Table 19 were saturated by both brine and oil.
An artificial fracture was created along the longitudinal axis using an electric saw for each core piece. Teflon spacers with 0.001 m in width were placed along two edges of the fracture to maintain a fracture aperture. Then, the core halves were carefully put together with the Teflon spacers placed in the fracture, wrapped with a Teflon tube and placed inside a horizontally-oriented core holder, with the fracture vertically-oriented. Teflon spacer was not placed in the space between core pieces. […] When assembling the core pieces for Case 1, core pieces were put so that oil saturation changes monotonically. Qualitatively, the longitudinal fracture served as a propped fracture and the fractures normal to it served as unpropped fractures in terms of hydraulic paths.
FIG. 59 presents a schematic of the experimental set-up for the flooding/soaking experiment. […] Then, the system was evacuated for 10 seconds to remove any air trapped in the fractures. After that, the core was flooded with crude oil to measure the fracture permeability by using the flow rate of 500 cm^3/hr under certain overburden pressure. Table 20 provides the pressure drops along the cores at a certain flow rate and the overburden pressures used.
During flooding/soaking experiments, the RB was injected at 6 ml/hr until no more oil production was observed. Then, the surfactant solution was injected at 6 ml/hr to fill the volume from the inlet of the coreholder until the outlet line of the coreholder, which was followed by a 10-hour soaking period. After that, the surfactant solution was injected at 6 ml/hr to chase the fluid in the system and to recover the produced oil during the first soaking period. The system was then shut-in for a second 10-hour soaking period. RB was then injected at 6 ml/hr to chase the fluid in the system and to recover the produced oil during the second soaking period. Finally, the system was shut-in for a 12-hour soaking period, followed by RB injection to chase the fluid in the system until no oil production.
The effluent was collected in plastic graduating cylinders at room temperature.

[4] = 24 h after immersion in 1.0 wt % surfactant solution

2-ethylhexanol-4 propylene oxide-15 ethylene oxide [2-EH-4PO-15EO]
Average contact angle [1, 4]: 47.1 deg
contact angle, left side [1, 4]: 47.5 deg
contact angle, right side [1, 4]: 46.8 deg
Average contact angle ([1]; at the initialization): 134.1 deg
contact angle, left side ([1]; at the initialization): 133.2 deg
contact angle, right side ([1]; at the initialization): 135.1 deg
incremental oil recovery factor, chemical slug stage ([2]; 1.6 PVI slug after first RB flood, 1.1 wt % 3-pentanone in RB (core 1) or 1.0 wt % 2-EH-4PO-15EO in RB (core 2), 347 K): 23.6%
incremental oil recovery factor, chase RB flooding stage ([2]; 7.0 PVI chase RB, core 2, 347 K): 23.7%
total improved oil recovery ([2]; chemical slug + chase RB stages (1.2 PVI chase core 1; 7.0 PVI chase core 2), 347 K): 47.3%
total improved oil recovery ([3]; Case 1 (with initial water)): 76.11 % OOIM
Cumulative improved oil recovery factor by surfactant solution ([3]; Case 1 (with initial water), after the 1st soaking period): 0.3348
Cumulative improved oil recovery factor by surfactant solution ([3]; Case 1 (with initial water), after the 2nd soaking period): 0.6303
Cumulative improved oil recovery factor by surfactant solution ([3]; Case 1 (with initial water), after the 3rd soaking period): 0.7611
incremental oil recovery ([3]; Case 1, after the 1st soaking period): 33.48 % OOIM
incremental oil recovery ([3]; Case 1, after the 2nd soaking period): 29.55 % OOIM
incremental oil recovery ([3]; Case 1, after the 3rd soaking period): 13.09 % OOIM
total improved oil recovery ([3]; Case 2 (without initial water)): 78.42 % OOIM
Cumulative improved oil recovery factor by surfactant solution ([3]; Case 2 (without initial water), after the 1st soaking period): 0.3555
Cumulative improved oil recovery factor by surfactant solution ([3]; Case 2 (without initial water), after the 2nd soaking period): 0.6647
Cumulative improved oil recovery factor by surfactant solution ([3]; Case 2 (without initial water), after the 3rd soaking period): 0.7842
incremental oil recovery ([3]; Case 2, after the 1st soaking period): 35.55 % OOIM
incremental oil recovery ([3]; Case 2, after the 2nd soaking period): 30.92 % OOIM
incremental oil recovery ([3]; Case 2, after the 3rd soaking period): 11.95 % OOIM

Source: patent publication US12031087B2, “Oxygenated solvents for improved production of oil and gas” (Board of Regents, The University of Texas System, priority 2019, dated 2024)
